Test results from US9233111B2, “Pyrrolo pyrimidine derivatives” (NOVARTIS AG, priority 2011, dated 2016).

How the values were obtained:
[1] = target: full-length human recombinant BTK (Homo sapiens (Human), UniProt Q06187); assay: Inhibition of Btk enzymatic activity (biochemical enzyme assay, Caliper); settings: 30° C., 60 minutes
Method: The inhibitory activity of the present compounds against Btk was assessed in a biochemical enzyme assay. Assay plates in 384 well format were prepared with 8-point serial dilutions for the test compounds on a Thermo CatX workstation equipped with a Innovadyne Nanodrop Express. The assay plates were prepared by addition of 50 nl per well of compound solution in 90% DMSO. The kinase reactions were started by stepwise addition of 4.5 μl per well of peptide/ATP-solution (4 μM FITC-Ahx-[…]-NH2, 164 μM ATP) in kinase buffer (50 mM HEPES, pH 7.5, 1 mM DTT, 0.02% Tween20, 0.02% BSA, 0.6% DMSO, 10 mM beta-glycerophosphate, and 10 μM sodium orthovanadate, 18 mM MgCl2, 1 mM MnCl2) and 4.5 μl per well of enzyme solution (6.4 nM full-length human recombinant BTK) in kinase buffer. Kinase reactions were incubated at 30° C. for 60 minutes and subsequently terminated by addition of 16 μl per well of stop solution (100 mM HEPES pH 7.5, 5% DMSO, 0.1% Caliper coating reagent, 10 mM EDTA, and 0.015% Brij35). Kinase reactions were analyzed on a Caliper LC3000 workstation by separating phosphorylated and unphosphorylated peptides and kinase activities were calculated from the amounts of newly formed phospho-peptide. Inhibition data were calculated by comparison to control reactions without enzyme (100% inhibition) and without inhibitors (0% inhibition). The concentration of inhibitor required for 50% inhibition (IC50) was calculated from the inhibition in response to inhibitor concentrations.

Btk [2] = target: Btk (Rattus norvegicus, UniProt Q5S255); assay: Inhibition of Btk activity in blood: in vitro B cell activation assay (CD86) in rat whole blood; type: cell-based; settings: Lewis rat whole blood diluted to 50%, anti-rat IgM + IL-4, CD86 on CD45RA positive B cells, 24 hours
Method: Alternatively, the inhibitory activity of the present compounds in blood was assessed in the following in vitro B cell activation assay. Whole blood was collected from the abdominal aorta of anaesthetized adult male Lewis rats and was anticoagulated with 100 U/ml sodium heparin. Blood was then diluted to 50% with high glucose DMEM (Amimed) supplemented with 100 U/ml penicillin, […] streptomycin, 2 mM L-glutamin, 50 mg/ml dextran 40 and 5% FCS (Fetaclone I, Gibco). Then, 190 μl prediluted blood was mixed in 96 well U-bottomed microtiter plates (Nunc) with 10 μl of serial dilutions of test compounds in DMSO. Cultures were incubated at 37° C., 5% CO2 for 1 hour, then 30 μl of rat IL-4 (Beckton-Dickinson, final concentration 5 ng/ml) and goat anti-rat IgM (Serotec, final concentration 15 ug/ml) were added and the cultures were incubated for 24 hours. Activation of B cells was measured by flow cytometry after staining for the B cell subset with PE-Cy5-labeled anti-ratCD45RA (Beckton-Dickinson) and for the activation marker CD86 (PE-labeled anti-rat CD86 (Beckton-Dickinson). All staining procedures were performed at RT for 30 min in the dark in 96-deep well V-bottomed microtiter plates (Corning) with BD Lysing Solution (Beckton-Dickinson). Cytometric data was acquired on a FACScalibur flow cytometer (BD Biosciences) and the subpopulation of lymphocytes were gated according to size and granularity and further analyzed for expression of CD45RA and the activation markers. Data for the inhibition of B cell activation were calculated from the percentage of cells positively stained for activation markers within the CD45RA positive population. Inhibition data were calculated by comparison to control cultures without anti-IgM and IL-4 (100% inhibition) and without inhibitors (0% inhibition). The concentration of inhibitor required for 50% inhibition (IC50) was calculated from the inhibition in response to inhibitor concentrations.

Btk [3] = target: Btk (Homo sapiens (Human), UniProt Q06187); assay: Inhibition of cellular Btk activity: Btk-dependent FcG receptor-induced IL-8 secretion in differentiated THP1 cells; type: cell-based; settings: IgG-stimulated IL-8 secretion, 24 hours
Method: Alternatively, the present compounds might also be assessed for their capacity to inhibit Btk-dependent FcG receptor-induced IL-8 secretion in human cells. The human myeloid leukemia THP1 cell line (ATCC TIB202) was grown in RPMI 1640 medium supplemented with 10% FCS and 15 nM 1, 25-dihydroxy Vitamin D3 during 4 days before use to induced myeloid differentiation. A sufficient number of tissue-culture grade 384-well plates was coated with human IgG of unknown specificity by incubating overnight at 4° C. with 40 μl/well of a 50 μg/ml IgG solution in PBS. On the day of the experiment, plates were washed 5 times with 80 μl water on a Molecular Devices Aquamax DW4 plate washer. Solutions of the test compounds in 90% DMSO were added to each well on a Hamilton Microlab Star liquid handling station to 40 μl/well tissue culture medium and the total DMSO concentration was adjusted to 0.1%. Differentiated THP1 cells were then added in 40 μl/well to reach a final density of 5'000 cells/well in 80 μl culture medium. After 24 hours, IL-8 secretion was measured in the supernatant by the IL-8 HTRF assay following the protocol of the vendor (CisBio international). Inhibition data were calculated by comparison to control cultures without IgG stimulus enzyme (100% inhibition) and without inhibitors (0% inhibition). The concentration of inhibitor required for 50% inhibition (IC50) was calculated from the inhibition in response to inhibitor concentrations.

Sequence of full-length human recombinant BTK (Q06187 whole entry): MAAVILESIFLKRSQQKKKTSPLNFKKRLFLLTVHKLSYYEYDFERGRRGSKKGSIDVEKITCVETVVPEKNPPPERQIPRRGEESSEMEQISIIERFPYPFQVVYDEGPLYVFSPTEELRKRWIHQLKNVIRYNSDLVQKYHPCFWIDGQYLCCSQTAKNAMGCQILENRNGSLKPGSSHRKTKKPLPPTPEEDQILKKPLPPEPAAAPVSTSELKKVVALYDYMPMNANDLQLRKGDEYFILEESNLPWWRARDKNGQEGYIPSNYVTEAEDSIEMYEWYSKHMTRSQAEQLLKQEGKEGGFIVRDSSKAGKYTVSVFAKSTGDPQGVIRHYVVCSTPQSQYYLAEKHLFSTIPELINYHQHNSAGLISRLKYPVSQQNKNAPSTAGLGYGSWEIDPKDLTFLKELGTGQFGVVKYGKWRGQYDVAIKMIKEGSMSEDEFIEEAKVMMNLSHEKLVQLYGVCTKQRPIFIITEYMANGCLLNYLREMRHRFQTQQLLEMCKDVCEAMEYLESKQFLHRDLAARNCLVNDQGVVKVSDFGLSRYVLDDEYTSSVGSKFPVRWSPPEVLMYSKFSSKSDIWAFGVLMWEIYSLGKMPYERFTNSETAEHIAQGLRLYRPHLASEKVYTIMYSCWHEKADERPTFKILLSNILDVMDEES
Sequence of Btk (Homo sapiens (Human), UniProt Q06187) (Q06187 whole entry): as above
Sequence of Btk (Rattus norvegicus, UniProt Q5S255) (Q5S255 1-660): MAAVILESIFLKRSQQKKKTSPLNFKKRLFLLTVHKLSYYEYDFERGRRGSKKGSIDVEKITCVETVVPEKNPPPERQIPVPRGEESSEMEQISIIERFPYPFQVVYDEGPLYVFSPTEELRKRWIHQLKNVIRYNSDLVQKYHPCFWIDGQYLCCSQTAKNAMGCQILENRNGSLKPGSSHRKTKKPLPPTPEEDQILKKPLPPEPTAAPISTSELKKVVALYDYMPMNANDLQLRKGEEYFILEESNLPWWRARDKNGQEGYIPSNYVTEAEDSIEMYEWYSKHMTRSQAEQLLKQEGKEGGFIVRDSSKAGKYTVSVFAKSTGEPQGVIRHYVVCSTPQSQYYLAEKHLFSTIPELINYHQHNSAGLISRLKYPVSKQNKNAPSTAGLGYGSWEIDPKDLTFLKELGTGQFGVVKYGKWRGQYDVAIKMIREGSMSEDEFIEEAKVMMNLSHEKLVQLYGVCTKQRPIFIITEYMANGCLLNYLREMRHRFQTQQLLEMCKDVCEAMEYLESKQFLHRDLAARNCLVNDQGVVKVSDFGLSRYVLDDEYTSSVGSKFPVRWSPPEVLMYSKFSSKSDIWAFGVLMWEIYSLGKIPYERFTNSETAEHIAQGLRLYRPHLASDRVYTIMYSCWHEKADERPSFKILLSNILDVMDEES

Structure (SMILES) | IC50 [1] | IC50 (Btk [2]) | IC50 (Btk [3])
Cc1c(NC(=O)c2ccc3c(c2)OCC3(C)C)cc(F)cc1-c1ncnc2[nH]c(C3=CCN(C(=O)N(C)C)CC3)cc12 [Example 2, 4-(4-{3-[(3,3-Dimethyl-2,3-dihydro-benzofuran-6-carbonyl)-amino]-5-fluoro-2-methyl-phenyl}-7H-pyrrolo[2′3-d]pyrimidin-6-yl)-3,6-dihydro-2H-pyridine-1-carboxylic acid dimethylamide] | 4 nM | 72 nM | –
Cc1c(NC(=O)c2cc3c(s2)CCC(C)C3)cc(F)cc1-c1ncnc2[nH]c(C3=CCN(C(=O)N(C)C)CC3)cc12 (stereo not shown) [Example 3, 4-(4-{5-Fluoro-2-methyl-3-[(5-methyl-4,5,6,7-tetrahydro-benzo[b]thiophene-2-carbonyl)-amino]-phenyl}-7H-pyrrolo[2′3-d]pyrimidin-6-yl)-3,6-dihydro-2H-pyridine-1-carboxylic acid dimethylamide] | 5 nM | – | 27 nM
Cc1c(NC(=O)c2ccc(C(C)(C)CO)cc2)cc(F)cc1-c1ncnc2[nH]c(C3=CCN(C(=O)N(C)C)CC3)cc12 [Example 6, 4-(4-{5-Fluoro-3-[4-(2-hydroxy-1,1-dimethyl-ethyl)-benzoylamino]-2-methyl-phenyl}-7H-pyrrolo[2,3-d]pyrimidin-6-yl)-3,6-dihydro-2H-pyridine-1-carboxylic acid dimethylamide] | 2 nM | 112 nM | –
CN(C)C(=O)N1CC=C(c2cc3c(-c4cccc(NC(=O)c5ccc(C(C)(C)O)cc5F)c4CO)ncnc3[nH]2)CC1 [Example 16, 4-(4-{3-[2-Fluoro-4-(1-hydroxy-1-methyl-ethyl)-benzoylamino]-2-hydroxymethyl-phenyl}-7H-pyrrolo[2,3-d]pyrimidin-6-yl)-3,6-dihydro-2H-pyridine-1-carboxylic acid dimethylamide] | 2 nM | – | 69 nM
CN(C)C(=O)N1CC=C(c2cc3c(-c4cccc(NC(=O)c5ccc(C6CC6)cc5)c4CO)ncnc3[nH]2)CC1 [Example 17, 4-{4-[3-(4-Cyclopropyl-benzoylamino)-2-hydroxymethyl-phenyl]-7H-pyrrolo[2,3-d]pyrimidin-6-yl}-3,6-dihydro-2H-pyridine-1-carboxylic acid dimethylamide] | 1 nM | 100 nM | –
Cc1c(NC(=O)c2ccc(C3CC3)cc2)cc(F)cc1-c1ncnc2[nH]c(C3=CCN(C(=O)CO)CC3)cc12 [Example 32, 4-Cyclopropyl-N-(5-fluoro-3-{6-[1-(2-hydroxy-actyl)-1,2,3,6-tetrahydro-pyridin-4-yl]-7H-pyrrolo[2,3-d]pyrimidin-4-yl}-2-methyl-phenyl)benzamide] | 7 nM | 414 nM | –
CC(C)(C)c1ccc(C(=O)Nc2cccc(-c3ncnc4[nH]c(C5=CCN(C(=O)CF)CC5)cc34)c2CO)cc1 [Example 38, 4-tert-Butyl-N-(3-{6-[1-(2 fluoro-acetyl)-1,2,3,6-tetrahydro-pyridin-4-yl]-7H-pyrrolo[2,3-d]pyrimidin-4-yl}-2-hydroxymethyl-phenyl)-benzamide] | 27 nM | – | 20 nM
Cc1c(NC(=O)N2CC(OC(C)(C)C)C2)cc(F)cc1-c1ncnc2[nH]c(C3=CCN(C(=O)N(C)C)CC3)cc12 [Example 57, 4-(4-{3-[(3-tert-Butoxy-azetidine-1-carbonyl)-amino]-5-fluoro-2-methyl-phenyl}-7H-pyrrolo[2,3-d]pyrimidin-6-yl)-3,6-dihydro-2H-pyridine-1-carboxylic acid dimethylamide] | 7 nM | – | –
Cc1c(NC(=O)N2CC(OC(C)C)C2)cc(F)cc1-c1ncnc2[nH]c(C3=CCN(C(=O)N(C)C)CC3)cc12 [Example 58, 4-(4-{5-Fluoro-3-[(3-isopropoxy-azetidine-1-carbonyl)-amino]-2-methyl-phenyl}-7H-pyrrolo[2,3-d]pyrimidin-6-yl)-3,6-dihydro-2H-pyridine-1-carboxylic acid dimethylamide] | 16 nM | 179 nM | –
Cc1c(NC(=O)N2Cc3ccc(F)cc3C2)cc(F)cc1-c1ncnc2[nH]c(C3=CCN(C(=O)N(C)C)CC3)cc12 [Example 59, 5-Fluoro-1,3-dihydro-isoindole-2-carboxylic acid {3-[6-(1-dimethylcarbamoyl-1,2,3,6-tetrahydro-pyridin-4-yl)-7H-pyrrolo[2,3-d]pyrimidin-4-yl]-5-fluoro-2-methyl-phenyl}-amide] | 3 nM | – | –
Cc1c(NC(=O)N2CC(OC(C(F)(F)F)C(F)(F)F)C2)cc(F)cc1-c1ncnc2[nH]c(C3=CCN(C(=O)N(C)C)CC3)cc12 [Example 60, 4-[4-(5-Fluoro-2-methyl-3-{[3-(2,2,2-trifluoro-1-trifluoromethyl-ethoxy)-azetidine-1-carbonyl]-amino}-phenyl)-7H-pyrrolo[2,3-d]pyrimidin-6-yl]-3,6-dihydro-2H-pyridine-1-carboxylic acid dimethylamide] | 8 nM | – | –
Cc1c(NC(=O)N2CC(OC(C)(C)C)C2)cc(F)cc1-c1ncnc2[nH]c(C3=CCOCC3)cc12 [Example 61, 3-tert-Butoxy-azetidine-1-carboxylic acid {3-[6-(3,6-dihydro-2H-pyran-4-yl)-7H-pyrrolo[2,3-d]pyrimidin-4-yl]-5-fluoro-2-methyl-phenyl}-amide] | 6 nM | – | –
Cc1c(-c2ncnc3[nH]c(C4=CCN(C(=O)N(C)C)CC4)cc23)ccc(F)c1NC(=O)N1CC(OC(C)(C)C)C1 [Example 63, 4-(4-{3-[(3-tert-Butoxy-azetidine-1-carbonyl)-amino]-4-fluoro-2-methyl-phenyl}-7H-pyrrolo[2,3-d]pyrimidin-6-yl)-3,6-dihydro-2H-pyridine-1-carboxylic acid dimethylamide] | 2 nM | – | –
Cc1c(NC(=O)c2ccc(C(C)(C)C)cc2)cccc1-c1ncnc2[nH]c(C3=CCOCC3)cc12 [Example 64, 4-tert-Butyl-N-{3-[6-(3,6-dihydro-2H-pyran-4-yl)-7H-pyrrolo[2,3-d]pyrimidin-4-yl]-2-methyl-phenyl}-benzamide] | 15 nM | – | –
Cc1c(NC(=O)c2ccc(C(C)(C)C)cc2)cccc1-c1ncnc2[nH]c(C3=CCC4(CC3)OCCO4)cc12 [Example 65, 4-tert-Butyl-N-{3-[6-(1,4-dioxa-spiro[4.5]dec-7-en-8-yl)-7H-pyrrolo[2,3-d]pyrimidin-4-yl]-2-methyl-phenyl}-benzamide] | 9 nM | – | –
Cc1c(NC(=O)c2ccc(C(C)(C)C)cc2)cccc1-c1ncnc2[nH]c(C3=CCC(O)CC3)cc12 (stereo not shown) [Example 66, 4-tert-Butyl-N-{3-[6 (4 hydroxy-cyclohex-1-enyl)-7H-pyrrolo[2,3-d]pyrimidin-4-yl]-2-methyl-phenyl}-benzamide] | 12 nM | – | –
Cc1c(NC(=O)c2ccc(C(C)(C)C)cc2)cccc1-c1ncnc2[nH]c(C3=CCC(N(C)C)CC3)cc12 (stereo not shown) [Example 67, 4-tert-Butyl-N-{3-[6 (4 dimethylamino-cyclohex-1-enyl)-7H-pyrrolo[2,3-d]pyrimidin-4-yl]-2-methyl-phenyl}-benzamide] | 8 nM | – | –
